70 compounds from patent US10051861B2, “N-arylamidine-substituted trifluoroethyl sulfide derivatives as acaricides and insecticides” (BAYER CROPSCIENCE AG, priority 2011, dated 2018) can be followed below.

This assay has as its system greenhouse red spider mite (Tetranychus urticae). Put plainly: Tetranychus urticae spray test, OP-resistant (TETRUR), bean leaf disks. It is filed as in vivo. To be noted: application rate 500 g/ha, after 6 days; for pest or weed control at 500 g/ha: Tetranychus urticae, foliar, 144 h, read-out: efficacy (spider mites killed). The method, then:
After 6 days, the effect in % is determined.

Consider `CN/C(=N\c1cc([S+]([O-])CC(F)(F)F)c(C)cc1F)c1cccc(Cl)c1` (stereo not shown) [Ib-76], for which the pest or weed control at 500 g/ha is 100%. With `Cc1cc(F)c(/N=C(\c2ccc(C#N)cc2)N(C)C)cc1[S+]([O-])CC(F)(F)F` (stereo not shown) [Ib-77], the “efficacy (spider mites killed)” value is reported as 90%. Consider `Cc1cc(C)c([S+]([O-])CC(F)(F)F)cc1/N=C(\N)C1(Cl)CC1` (stereo not shown) [Ib-79], for which the pest or weed control at 500 g/ha is 100%. Still for that read-out and setting: as for `N/C(=N\c1cc([S+]([O-])CC(F)(F)F)c(Cl)cc1Cl)C(F)F` (stereo not shown) [Ib-80], the figure is 100%. As to `Cc1cc(F)c(/N=C(\c2cccs2)N(C)C)cc1[S+]([O-])CC(F)(F)F` (stereo not shown) [Ib-81], the pest or weed control at 500 g/ha was 100%. Same read-out and setting: as for `Cc1cc(F)c(/N=C(\c2cccn2C)N(C)C)cc1[S+]([O-])CC(F)(F)F` (stereo not shown) [Ib-82], the figure is 100%; as for `CCN/C(=N\c1cc([S+]([O-])CC(F)(F)F)c(C)cc1F)c1cccnc1` (stereo not shown) [Ib-84], 100%; as for `Cc1cc(F)c(/N=C(\c2ccccc2F)N(C)C)cc1[S+]([O-])CC(F)(F)F` (stereo not shown) [Ib-87], 100%. On the same count and under the same terms, as for `Cc1cc(F)c(/N=C(\NC2CC2)c2ccc(Cl)nc2)cc1[S+]([O-])CC(F)(F)F` (stereo not shown) [Ib-88], the figure is 100%. On the same count and under the same terms, as for `CN/C(=N\c1cc([S+]([O-])CC(F)(F)F)c(Cl)cc1C)C(F)(F)F` (stereo not shown) [Ib-90], the figure is 100%.

With `Cc1cc(F)c(/N=C(/NC2CS(=O)(=O)C2)C(F)(F)F)cc1[S+]([O-])CC(F)(F)F` (stereo not shown) [Ib-91], the pest or weed control at 500 g/ha was found to be 90%. On the same count and under the same terms, as for `CN/C(=N/c1cc([S+]([O-])CC(F)(F)F)c(C)cc1F)c1ccc(C(F)(F)F)nc1` (stereo not shown) [Ib-92], the figure is 100%.

Consider `CN/C(=N\c1cc([S+]([O-])CC(F)(F)F)c(C)cc1F)c1cccnc1` (stereo not shown) [Ib-93], for which the “efficacy (spider mites killed)” value stood at 100%. Consider `Cc1cc(C)c([S+]([O-])CC(F)(F)F)cc1/N=C(\N)c1ccc(Cl)nc1` (stereo not shown) [Ib-94], for which the pest or weed control at 500 g/ha is 100%. On the same count and under the same terms, as for `CN/C(=N\c1cc([S+]([O-])CC(F)(F)F)c(Cl)cc1Cl)c1cccnc1` (stereo not shown) [Ib-95], the figure is 100%; as for `Cc1cc(F)c(/N=C(/N2CCCC2)C(F)(F)F)cc1[S+]([O-])CC(F)(F)F` (stereo not shown) [Ib-96], 90%; as for `CN/C(=N\c1cc([S+]([O-])CC(F)(F)F)c(C)cc1F)c1ccncc1` (stereo not shown) [Ib-97], 100%. On to `Cc1cc(C)c([S+]([O-])CC(F)(F)F)cc1/N=C(/c1cccnc1)N(C)C` (stereo not shown) [Ib-98], for which the pest or weed control at 500 g/ha was determined as 100%. The same measure, in the same setting: as for `Cc1cc(F)c(/N=C(\N)C2CCC2)cc1[S+]([O-])CC(F)(F)F` (stereo not shown) [Ib-99], the figure is 100%. Same read-out and setting: as for `CN/C(=N\c1cc([S+]([O-])CC(F)(F)F)c(C)cc1C)c1ccc(Cl)cc1` (stereo not shown) [Ib-100], the figure is 100%; as for `Cc1cc(C)c([S+]([O-])CC(F)(F)F)cc1/N=C(\N)c1ccccn1` (stereo not shown) [Ib-102], 90%. Still for that read-out and setting: as for `CN/C(=N\c1cc([S+]([O-])CC(F)(F)F)c(Cl)cc1C)c1cccnc1` (stereo not shown) [Ib-103], the figure is 90%; as for `CN/C(=N\c1cc([S+]([O-])CC(F)(F)F)c(C)cc1F)c1cnc(Cl)c(Cl)c1` (stereo not shown) [Ib-104], 90%; as for `CN/C(=N\c1cc([S+]([O-])CC(F)(F)F)c(Cl)cc1Cl)c1ccccn1` (stereo not shown) [Ib-109], 100%. On to `Cc1cc(C)c([S+]([O-])CC(F)(F)F)cc1/N=C1\CCCN1C(C)C(F)(F)F` (stereo not shown) [Ib-112], for which the pest or weed control at 500 g/ha is 100%.

Turning to `CN/C(=N/c1cc([S+]([O-])CC(F)(F)F)c(C)cc1F)c1cccc(C(F)(F)F)c1` (stereo not shown) [Ib-113], the pest or weed control at 500 g/ha worked out at 100%. Consider `Cc1cc(F)c(/N=C(\c2cccc(C(F)(F)F)c2)N(C)C)cc1[S+]([O-])CC(F)(F)F` (stereo not shown) [Ib-114], for which the pest or weed control at 500 g/ha is 100%. As for `Cc1cc(F)c(/N=C2\SCC(=O)N2CC(F)F)cc1[S+]([O-])CC(F)(F)F` (stereo not shown) [Ib-116], the pest or weed control at 500 g/ha worked out at 90%.

For the compound `O=C1CS/C(=N\c2cc([S+]([O-])CC(F)(F)F)ccc2F)N1CC(F)(F)F` (stereo not shown) [Ib-117], the pest or weed control at 500 g/ha was 100%. Still for that read-out and setting: as for `Cc1cc(F)c(/N=C(/N)c2ccc(Cl)cc2)cc1[S+]([O-])CC(F)(F)F` (stereo not shown) [Ib-118], the figure is 100%; as for `CN(C)/C(=N\c1cc([S+]([O-])CC(F)(F)F)c(Cl)cc1Cl)c1ccc(Cl)nc1` (stereo not shown) [Ib-119], 100%; as for `O=C1CS/C(=N\c2cc([S+]([O-])CC(F)(F)F)c(Cl)cc2F)N1CC(F)(F)F` (stereo not shown) [Ib-120], 100%.

Take `O=C1CS/C(=N\c2cc([S+]([O-])CC(F)(F)F)ccc2Cl)N1CC(F)(F)F` (stereo not shown) [Ib-121]: the pest or weed control at 500 g/ha stood at 100%. For `O=C1CS/C(=N\c2cc([S+]([O-])CC(F)(F)F)c(Cl)cc2Cl)N1C1CC1` (stereo not shown) [Ib-122], the pest or weed control at 500 g/ha stood at 90%. Still for that read-out and setting: as for `Cc1cc(F)c(/N=C(\c2ccc(C(F)(F)F)cc2)N(C)C)cc1[S+]([O-])CC(F)(F)F` (stereo not shown) [Ib-124], the figure is 90%; as for `CN/C(=N/c1ccc(C)c([S+]([O-])CC(F)(F)F)c1)C(F)(F)F` (stereo not shown) [Ib-125], 100%; as for `Cc1cc(C)c([S+]([O-])CC(F)(F)F)cc1/N=C(/c1ccccc1)N(C)C` (stereo not shown) [Ib-126], 100%. The same measure, in the same setting: as for `CN(C)/C(=N\c1cc([S+]([O-])CC(F)(F)F)c(Cl)cc1Cl)c1ccccc1` (stereo not shown) [Ib-127], the figure is 100%; as for `Cc1cc(F)c(/N=C/N(C)C)cc1[S+]([O-])CC(F)(F)F` (stereo not shown) [Ib-128], 90%; as for `[O-][S+](CC(F)(F)F)c1cc(/N=C(\NCC(F)F)C2CC2)c(Cl)cc1Cl` (stereo not shown) [Ib-129], 100%.

On to `[O-][S+](CC(F)(F)F)c1cc(/N=C(\NCCc2ncc(C(F)(F)F)cc2Cl)C2CC2)c(Cl)cc1Cl` (stereo not shown) [Ib-130], for which the pest or weed control at 500 g/ha turned out to be 100%. Same read-out and setting: as for `Cc1cc(F)c(/N=C(\N)C2CCCCC2)cc1[S+]([O-])CC(F)(F)F` (stereo not shown) [Ib-131], the figure is 100%.

For `Cc1cc(F)c(/N=C(\NCC(F)F)C2CC2)cc1[S+]([O-])CC(F)(F)F` (stereo not shown) [Ib-132], the pest or weed control at 500 g/ha came out at 100%.

For the compound `Cc1cc(C)c([S+]([O-])CC(F)(F)F)cc1/N=C(/c1ccc(Cl)nc1)N(C)C` (stereo not shown) [Ib-133], the pest or weed control at 500 g/ha is 90%.

With `Cc1cc(F)c(/N=C2\SCC(=O)N2C)cc1[S+]([O-])CC(F)(F)F` (stereo not shown) [Ib-134], the pest or weed control at 500 g/ha was 90%. Regarding `Cc1cc(F)c(/N=C2\SCC(=O)N2C2CC2)cc1[S+]([O-])CC(F)(F)F` (stereo not shown) [Ib-135], the pest or weed control at 500 g/ha worked out at 100%.

As to `Cc1cc(C)c([S+]([O-])CC(F)(F)F)cc1/N=C(\NC1CC1)c1ccc(Cl)nc1` (stereo not shown) [Ib-136], the pest or weed control at 500 g/ha stood at 90%. The same measure, in the same setting: as for `Cc1cc(Cl)c([S+]([O-])CC(F)(F)F)cc1/N=C(\N)C1(Cl)CC1` (stereo not shown) [Ib-138], the figure is 100%; as for `Cc1ccc(/N=C2\SCC(=O)N2CC(F)(F)F)cc1[S+]([O-])CC(F)(F)F` (stereo not shown) [Ib-139], 100%.

As for `CN/C(=N\c1cc([S+]([O-])CC(F)(F)F)c(Cl)cc1Cl)c1cccc(Cl)c1` (stereo not shown) [Ib-140], the pest or weed control at 500 g/ha was determined as 100%. On to `Cc1cc(C)c([S+]([O-])CC(F)(F)F)cc1/N=C1\SCC(=O)N1CC(F)(F)F` (stereo not shown) [Ib-141], for which the pest or weed control at 500 g/ha amounted to 100%. Still for that read-out and setting: as for `Cc1cc(C)c([S+]([O-])CC(F)(F)F)cc1/N=C(\NCC(F)(F)F)C1CCC1` (stereo not shown) [Ib-142], the figure is 90%; as for `CN/C(=N\c1cc([S+]([O-])CC(F)(F)F)c(Cl)cc1Cl)c1ccc(C(F)(F)F)nc1` (stereo not shown) [Ib-144], 90%; as for `CN/C(=N/c1cc([S+]([O-])CC(F)(F)F)c(C)cc1F)c1ccc(C(F)(F)F)cc1` (stereo not shown) [Ib-145], 90%. Same read-out and setting: as for `O=C1CS/C(=N\c2ccc(Cl)c([S+]([O-])CC(F)(F)F)c2)N1CC(F)(F)F` (stereo not shown) [Ib-146], the figure is 90%. The same measure, in the same setting: as for `Cc1cc(C)c([S+]([O-])CC(F)(F)F)cc1/N=C(/c1ccccc1Cl)N(C)C` (stereo not shown) [Ib-147], the figure is 90%. As for `CN/C(=N/c1cc([S+]([O-])CC(F)(F)F)c(C)cc1F)c1ccccc1C(F)(F)F` (stereo not shown) [Ib-148], the pest or weed control at 500 g/ha was found to be 100%. As for `CN/C(=N\c1cc([S+]([O-])CC(F)(F)F)c(Cl)cc1Cl)c1ccc(Cl)cc1` (stereo not shown) [Ib-149], the pest or weed control at 500 g/ha was found to be 90%. Still for that read-out and setting: as for `CCN/C(=N\c1cc([S+]([O-])CC(F)(F)F)c(Cl)cc1Cl)c1cccnc1` (stereo not shown) [Ib-150], the figure is 90%; as for `[O-][S+](CC(F)(F)F)c1cc(/N=C(\NC2CC2)c2ccc(Cl)nc2)c(Cl)cc1Cl` (stereo not shown) [Ib-151], 100%. The same measure, in the same setting: as for `CN/C(=N\c1cc([S+]([O-])CC(F)(F)F)c(Cl)cc1Cl)c1ccncc1` (stereo not shown) [Ib-152], the figure is 90%. Still for that read-out and setting: as for `Cc1cc(Cl)c([S+]([O-])CC(F)(F)F)cc1/N=C(\N)c1cnccn1` (stereo not shown) [Ib-153], the figure is 90%; as for `Cc1cc(C)c([S+]([O-])CC(F)(F)F)cc1/N=C(/c1ccc(Cl)cc1)N(C)C` (stereo not shown) [Ib-154], 90%; as for `Cc1cc(C)c([S+]([O-])CC(F)(F)F)cc1/N=C(\NCC(F)(F)F)C1CCCC1` (stereo not shown) [Ib-155], 90%. Turning to `Cc1cc(C)c([S+]([O-])CC(F)(F)F)cc1/N=C1\SCC(=O)N1C1CC1` (stereo not shown) [Ib-156], the pest or weed control at 500 g/ha was 90%.

Turning to `Cc1cc(C)c([S+]([O-])CC(F)(F)F)cc1/N=C(/c1ccccc1Cl)N1CCOCC1` (stereo not shown) [Ib-157], the pest or weed control at 500 g/ha was determined as 90%.

As to `Cc1cc(F)c(/N=c2\sc(C)c(C)n2CC(F)(F)F)cc1[S+]([O-])CC(F)(F)F` (stereo not shown) [Ib-158], the pest or weed control at 500 g/ha was 90%. On the same count and under the same terms, as for `Cc1cc(C)c([S+]([O-])CC(F)(F)F)cc1/N=C(\NC(C)C(F)(F)F)C1CC1` (stereo not shown) [Ib-160], the figure is 100%. The same measure, in the same setting: as for `Cc1cc(F)c(/N=C(\NCC(F)(F)F)C2CCC2)cc1[S+]([O-])CC(F)(F)F` (stereo not shown) [Ib-166], the figure is 90%; as for `[O-][S+](CC(F)(F)F)c1cc(/N=C(\NCC(F)(F)F)C2CCC2)c(Cl)cc1Cl` (stereo not shown) [Ib-167], 90%.
